Source: paper PMC12669672, “Structural insights into selective and dual antagonism of EP2 and EP4 prostaglandin receptors” (The EMBO Journal, 2025)
Several values for one entry are separate records, joined by “and”; a condition that tells them apart may be missing. Equal entries are not always repeated. Where two headings read alike, the source gives them in different places.

Legend:
[1] = molecular target: T1, EP2 E23A (Homo sapiens, UniProt P43116, E23A); assay: GloSensor cAMP assay, antagonism of PGE2-induced cAMP; assay type: cell-based
T1 construct: The full-length EP2 or EP4 was cloned into the pcDNA3.1 vector; FLAG (N); expressed in transfected cells; host or cells: AD293 cells
In short: (§1)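 Read-out is GloSensor luminescence from AD293 cells co-expressing FLAG-tagged EP2 variant and GloSensor22F biosensor, transfected at a 1:1 plasmid ratio. Cells were plated at 4000 per well in CO2-independent medium containing 2% cAMP reagent, incubated 1 h at 37 °C, then read.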

[2] = molecular target: T2, EP4 I317A (Homo sapiens, UniProt P35408, I317A); assay: as above; assay type: cell-based; conditions: for cAMP activity (∆pIC50 from EP4 WT): TG6-129, I317A
T2 construct: The full-length EP2 or EP4 was cloned into the pcDNA3.1 vector; FLAG (N); expressed in transfected cells; host or cells: AD293 cells

[3] = molecular target: T3, EP2 S28A (Homo sapiens, UniProt P43116, S28A); assay: as above; assay type: cell-based; conditions: for cAMP activity (∆pIC50 from EP2 WT): TG6-129, S28A
T3 construct: The full-length EP2 or EP4 was cloned into the pcDNA3.1 vector; FLAG (N); expressed in transfected cells; host or cells: AD293 cells
In short: as §1

[4] = molecular target: T4, constitutively active EP2 S28A (Homo sapiens, UniProt P43116, S28A); assay: GloSensor cAMP assay, inhibition of constitutive activity; assay type: cell-based
T4 construct: The full-length EP2 or EP4 was cloned into the pcDNA3.1 vector; FLAG (N); expressed in transfected cells; host or cells: AD293 cells
In short: as §1

[5] = molecular target: T5, constitutively active EP2 T82A (Homo sapiens, UniProt P43116, T82A); assay: as above; assay type: cell-based
T5 construct: The full-length EP2 or EP4 was cloned into the pcDNA3.1 vector; FLAG (N); expressed in transfected cells; host or cells: AD293 cells
In short: as §1

[6] = molecular target: T6, constitutively active EP4 I317A (Homo sapiens, UniProt P35408, I317A); assay: as above; assay type: cell-based
T6 construct: The full-length EP2 or EP4 was cloned into the pcDNA3.1 vector (Invitrogen), incorporating an N-terminal FLAG tag; expressed in transfected cells; host or cells: AD293

[7] = molecular target: T7, constitutively active EP2 E23A (Homo sapiens, UniProt P43116, E23A); assay: as above; assay type: cell-based
T7 construct: The full-length EP2 or EP4 was cloned into the pcDNA3.1 vector; FLAG (N); expressed in transfected cells; host or cells: AD293 cells
In short: as §1

[8] = molecular target: EP4; set-up: method as in Ganesh et al, 2013; conditions: antagonism towards EP4; ref Ganesh et al, 2013; cited from earlier work
[9] = molecular target: EP2; set-up: method as in Ganesh et al, 2013; conditions: antagonism towards EP2; ref Ganesh et al, 2013; cited from earlier work
[10] = 1 h, TG6-129 log([M]) -12, read-out: % cAMP activity (normalized to WT)
[11] = no PGE2, pIC50 mutant - pIC50 WT, mean

T5 sequence (P43116 whole entry T82A): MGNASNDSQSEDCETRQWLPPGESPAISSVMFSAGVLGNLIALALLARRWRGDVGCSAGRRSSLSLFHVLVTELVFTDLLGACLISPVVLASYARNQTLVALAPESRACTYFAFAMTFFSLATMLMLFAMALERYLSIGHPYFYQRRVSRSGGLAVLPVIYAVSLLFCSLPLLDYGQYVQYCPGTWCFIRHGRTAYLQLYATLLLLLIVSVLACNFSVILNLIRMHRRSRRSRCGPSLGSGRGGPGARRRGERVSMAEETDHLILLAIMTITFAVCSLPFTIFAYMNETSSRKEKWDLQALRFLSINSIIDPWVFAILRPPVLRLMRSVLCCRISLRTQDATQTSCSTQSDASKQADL
T1 sequence (P43116 whole entry E23A): as the sequence (P43116 whole entry T82A) above, with E23A, A82T counted along it
T7 sequence (P43116 whole entry E23A): as the sequence (P43116 whole entry T82A) above, with E23A, A82T counted along it
T4 sequence (P43116 whole entry S28A): as the sequence (P43116 whole entry T82A) above, with S28A, A82T counted along it
T3 sequence (P43116 whole entry S28A): as the sequence (P43116 whole entry T82A) above, with S28A, A82T counted along it
T2 sequence (P35408 whole entry I317A): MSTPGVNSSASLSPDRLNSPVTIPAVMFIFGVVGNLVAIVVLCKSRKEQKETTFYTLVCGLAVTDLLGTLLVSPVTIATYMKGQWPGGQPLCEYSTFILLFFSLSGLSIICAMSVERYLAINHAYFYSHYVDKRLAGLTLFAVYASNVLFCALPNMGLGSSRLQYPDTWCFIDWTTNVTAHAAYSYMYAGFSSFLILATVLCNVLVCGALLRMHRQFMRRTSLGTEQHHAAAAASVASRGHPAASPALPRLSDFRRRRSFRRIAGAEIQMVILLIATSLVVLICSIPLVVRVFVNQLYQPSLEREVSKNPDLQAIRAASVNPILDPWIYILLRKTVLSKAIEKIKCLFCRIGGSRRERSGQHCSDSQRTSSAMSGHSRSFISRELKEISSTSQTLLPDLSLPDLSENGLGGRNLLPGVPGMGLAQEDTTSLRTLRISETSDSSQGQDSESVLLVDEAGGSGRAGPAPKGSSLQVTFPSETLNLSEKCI
T6 sequence (P35408 whole entry I317A): as above

## CCc1nnc(NS(=O)(=O)c2ccc(NC(=S)NC(=O)/C=C/c3ccc(F)cc3)cc2)s1 [TG6-129]
[1]
  IC50: 20.4 nM
[1]; [10]
  remaining activity at 1 pM: 74.1%
[1]; TG6-129, E23A, Mean
  cAMP activity (∆pIC50 from EP2 WT): 0.563
[2]
  IC50: 10700 nM
[2]; 1 h, TG6-129 log([M]) -4.00, read-out: % cAMP activity (normalized to WT)
  remaining activity at 100 µM: 16.3%
[2]; 1 h, TG6-129 log([M]) -4.70, read-out: % cAMP activity (normalized to WT)
  remaining activity at […]: 19.5%
[2]; 1 h, TG6-129 log([M]) -5.40, read-out: % cAMP activity (normalized to WT)
  remaining activity at […]: 47.7%
[2]; 1 h, TG6-129 log([M]) -6.10, read-out: % cAMP activity (normalized to WT)
  remaining activity at […]: 54.4%
[2]; 1 h, TG6-129 log([M]) -6.80, read-out: % cAMP activity (normalized to WT)
  remaining activity at 0.1585 µM: 59.7%
[2]; 1 h, TG6-129 log([M]) -7.49, read-out: % cAMP activity (normalized to WT)
  remaining activity at 0.03236 µM: 57.3%
[2]; 1 h, TG6-129 log([M]) -8.19, read-out: % cAMP activity (normalized to WT)
  remaining activity at 0.006457 µM: 60.6%
[2]; 1 h, TG6-129 log([M]) -8.89, read-out: % cAMP activity (normalized to WT)
  remaining activity at 0.001288 µM: 53.5%
[2]; Mean
  cAMP activity (∆pIC50 from EP4 WT): 0.074
[2]; single experiments 1st-3rd
  cAMP activity (∆pIC50 from EP4 WT): 0.047 and -0.037 and 0.211
[3]
  IC50: 36.3 nM
[3]; 1 h, TG6-129 log([M]) -11, read-out: % cAMP activity (normalized to WT)
  remaining activity at 10 pM: 109%
[3]; [10]
  remaining activity at 1 pM: 106%
[3]; Mean
  cAMP activity (∆pIC50 from EP2 WT): 0.282
[3]; single experiments 1st-3rd
  cAMP activity (∆pIC50 from EP2 WT): 0.159 and 0.319 and 0.367
[4]
  IC50: 38.9 nM
[4]; 1 h, TG6-129 log([M]) -5, EP2-S28A, read-out: % cAMP activity (normalized to WT)
  remaining activity at 10 µM: 8.3%
[4]; 1 h, TG6-129 log([M]) -6, EP2-S28A, read-out: % cAMP activity (normalized to WT)
  remaining activity at 1 µM: 8.69%
[4]; 1 h, TG6-129 log([M]) -9, EP2-S28A, read-out: % cAMP activity (normalized to WT)
  remaining activity at 0.001 µM: 255%
[4]; S28A, Mean
  TG6-129 cAMP activity (∆pIC50 from EP2 WT), Mean: 0.422
[4]; S28A, single experiments 1st-3rd
  TG6-129 cAMP activity (∆pIC50 from EP2 WT): 0.401 and 0.405 and 0.460
[4]; [11]
  ΔpIC50: 0.42 ± 0.02
[5]
  IC50: 219 nM
[5]; T82A, Mean
  TG6-129 cAMP activity (∆pIC50 from EP2 WT), Mean: -0.316
[5]; T82A, single experiments 1st-3rd
  TG6-129 cAMP activity (∆pIC50 from EP2 WT): -0.298 and -0.466 and -0.185
[6]
  IC50: 3550 nM
[6]; 1 h, TG6-129 log([M]) -4.00, EP4-I317A, read-out: % cAMP activity (normalized to WT)
  remaining activity at 100 µM: 6.11%
[6]; 1 h, TG6-129 log([M]) -4.70, EP4-I317A, read-out: % cAMP activity (normalized to WT)
  remaining activity at […]: 11.7%
[6]; 1 h, TG6-129 log([M]) -5.40, EP4-I317A, read-out: % cAMP activity (normalized to WT)
  remaining activity at […]: 33.6%
[6]; 1 h, TG6-129 log([M]) -6.10, EP4-I317A, read-out: % cAMP activity (normalized to WT)
  remaining activity at […]: 68.9%
[6]; 1 h, TG6-129 log([M]) -6.80, EP4-I317A, read-out: % cAMP activity (normalized to WT)
  remaining activity at 0.1585 µM: 80.8%
[6]; 1 h, TG6-129 log([M]) -7.49, EP4-I317A, read-out: % cAMP activity (normalized to WT)
  remaining activity at 0.03236 µM: 80.3%
[6]; 1 h, TG6-129 log([M]) -8.19, EP4-I317A, read-out: % cAMP activity (normalized to WT)
  remaining activity at 0.006457 µM: 83%
[6]; 1 h, TG6-129 log([M]) -8.89, EP4-I317A, read-out: % cAMP activity (normalized to WT)
  remaining activity at 0.001288 µM: 79.7%
[6]; I317A, Mean
  TG6-129 cAMP activity (∆pIC50 from EP4 WT), Mean: 0.256
[6]; [11]
  ΔpIC50: 0.26 ± 0.11
[7]
  IC50: 31.6 nM
[7]; 1 h, TG6-129 log([M]) -5, EP2-E23A, read-out: % cAMP activity (normalized to WT)
  remaining activity at 10 µM: 5.62%
[7]; 1 h, TG6-129 log([M]) -6, EP2-E23A, read-out: % cAMP activity (normalized to WT)
  remaining activity at 1 µM: 4.15%
[7]; 1 h, TG6-129 log([M]) -7, EP2-E23A, read-out: % cAMP activity (normalized to WT)
  remaining activity at 0.1 µM: 17.9%
[7]; 1 h, TG6-129 log([M]) -9, EP2-E23A, read-out: % cAMP activity (normalized to WT)
  remaining activity at 0.001 µM: 93.8%
[7]; 1 h, TG6-129 log([M]) -10, EP2-E23A, read-out: % cAMP activity (normalized to WT)
  remaining activity at 0.0001 µM: 108%
[7]; 1 h, TG6-129 log([M]) -11, EP2-E23A, read-out: % cAMP activity (normalized to WT)
  remaining activity at 10 pM: 111%
[7]; 1 h, TG6-129 log([M]) -12, EP2-E23A, read-out: % cAMP activity (normalized to WT)
  remaining activity at 1 pM: 98%
[7]; E23A, Mean
  TG6-129 cAMP activity (∆pIC50 from EP2 WT), Mean: 0.363
[7]; E23A, single experiments 1st-3rd
  TG6-129 cAMP activity (∆pIC50 from EP2 WT): 0.381 and 0.341 and 0.367
[7]; [11]
  ΔpIC50: 0.36 ± 0.01
[8]
  Kd: 3900 nM
[9]
  Kd: 8.8 nM
